Earlier results as cited in patent US11413253B2, “Nanoparticle delivery systems” (Celator Pharmaceuticals, Inc., priority 2015, dated 2022).

Conditions: shown in the art

| SMILES | plasma clearance of free drug |
| --- | --- |
| CC(=O)O[C@@]12CO[C@@H]1C[C@H](O)[C@@]1(C)C(=O)[C@H](O)C3=C(C)[C@@H](OC(=O)[C@H](O)[C@@H](NC(=O)OC(C)(C)C)c4ccccc4)C[C@@](O)([C@@H](OC(=O)c4ccccc4)[C@H]21)C3(C)C [free docetaxel, docetaxel] | cleared quite rapidly |
| CCNC(=O)c1noc(-c2cc(C(C)C)c(O)cc2O)c1-c1ccc(CN2CCOCC2)cc1 [free AUY922, AUY922] | cleared quite rapidly |
